Experimental data published in US20230381327A1, “REACTIVE CONJUGATES” (DEBIOPHARM RESEARCH & MANUFACTURING S.A., priority 2020, published 2023).
Blank lines part the entries; values can stand above or below the molecule they belong to. Residues, ends and D or L forms follow the SMILES beside them.

Columns and labels:
[1] = molecular target: Fc region of trastuzumab (Homo sapiens, UniProt P01857); assay: Competitive FP binding assay against Fc-III-FAM
Protocol: All sample preparations were done in PBS pH 7.0 containing 0.05% Tween. Each experiment was performed in triplicate.

[2] = molecular target: T1, rituximab (Homo sapiens, UniProt P01857); assay: Antibody-payload conjugation, HRMS analysis (Example 12)
T1 construct: purchased Roche RITUXAN®
Protocol: To prepare the trastuzumab-payload conjugates, 2 eq of reactive conjugate prepared in Examples 5-8, 10 (2.4 nmol) in DMSO (2-7% v/v in final reaction mixture) was added to a solution of trastuzumab (1 eq, 1.2 nmol; commercial trastuzumab Herceptin® available from Roche which was buffer-exchanged into phosphate-buffered saline (PBS) prior to the conjugation) diluted in 50 mM NaHCO3 pH 9.0 (20-28 μL) and the reaction mixture (36 μL) was stirred at room temperature for 2 hours.
(§1) The conjugation of the payload moiety to trastuzumab was evaluated by HRMS analysis (as described above). The payload loading ratios (selectivity) between Fc and F(ab)2 were evaluated by digesting the conjugates with GingisKhan protease (1 unit per μg of antibody conjugate in the presence of 2 mM cysteine, 0.1M Tris, pH 8.0 for 1 hour at 37° C.), and subsequent HRMS analysis (as described above). The Degree of Conjugation (DoC) of the trastuzumab-payload conjugates was evaluated based on the results of the HRMS analysis (as described above).
The propensity of the reactive conjugates of the present invention to react with different antibodies was evaluated using commercially available atezolizumab, rituximab, trastuzumab emtansine, brentuximab-vedotin, aflibercept, panitumumab, pembrolizumab and Fc region only. Antibody-DOTA/FITC conjugates were prepared according to the same procedure as described in Example 11 above using peptide conjugates (indicated in Table 19) and the aforementioned antibodies.
(§2) DoC Fc=DoC−DoC F(ab)2, Selectivity Fc/F(ab)2=(DoC−DoC F(ab)2)/Doc (Fab)2

[3] = molecular target: T2, trastuzumab (Homo sapiens, UniProt P01857, D239E/L241M); assay: Preparation of trastuzumab-payload conjugates in solution, HRMS analysis (DoC, Fc/F(ab)2 selectivity); details: 10 eq of peptide-payload conjugate
T2 construct: purchased Roche Herceptin®
Protocol: Deglycosylation of the conjugates was achieved by incubating 1 unit of Endo S per μg of conjugate in the formulation buffer (37° C.-1 hour).
The average Degree of Conjugation (DoC) values were calculated using the HRMS data and the Equation 1 (Eq. 1) below.
where I(DoCk) is the relative peak intensity of conjugates with k add-on molecules per antibody.
After payload conjugation, the reaction buffer was diluted with 64 μL of 0.1 M glycine pH 2.5. The antibody conjugate was then purified by gel filtration chromatography using a pre-equilibrated with 0.1 M glycine pH 2.5 Bio-spin P-30 Column (bed height: 3.7 cm, overall length: 5 cm; available from Bio-Rad, USA) and then eluted with 0.1M glycine pH 2.5. The purified antibody conjugate fractions were neutralized with 1M PBS pH 8.5 (10 μL).
as §1, §2

binding to the Fc region of trastuzumab compared to Fc-III (in words) [1]: significant impact on peptide binding
SMILES: CC(=O)N[C@@H](CC(=O)O)C(=O)N[C@H]1CSSC[C@@H](C(=O)N[C@H](C(N)=O)[C@@H](C)O)NC(=O)[C@H](Cc2c[nH]c3ccccc23)NC(=O)[C@H](C(C)C)NC(=O)[C@H](CC(C)C)NC(=O)[C@H](CCC(=O)O)NC(=O)CNC(=O)[C@H](CC(C)C)NC(=O)[C@H](Cc2c[nH]cn2)NC(=O)[C@H](CCCCN)NC(=O)[C@H](C)NC1=O [Compound W4K] (HELM PEPTIDE1{[ac].D.C.A.K.H.L.G.E.L.V.W.C.T.[am]}$PEPTIDE1,PEPTIDE1,3:R3-13:R3$$$V2.0)

binding to the Fc region of trastuzumab compared to Fc-III (in words) [1]: moderate binding efficiency
SMILES: CC(=O)N[C@@H](CC(=O)O)C(=O)N[C@H]1CSSC[C@@H](C(=O)N[C@H](C(N)=O)[C@@H](C)O)NC(=O)[C@H](Cc2c[nH]c3ccccc23)NC(=O)[C@H](C(C)C)NC(=O)[C@H](CC(C)C)NC(=O)[C@H](CCC(=O)O)NC(=O)CNC(=O)[C@H](CCCCN)NC(=O)[C@H](Cc2c[nH]cn2)NC(=O)[C@H](Cc2c[nH]c3ccccc23)NC(=O)[C@H](C)NC1=O [Compound L6K] (HELM PEPTIDE1{[ac].D.C.A.W.H.K.G.E.L.V.W.C.T.[am]}$PEPTIDE1,PEPTIDE1,3:R3-13:R3$$$V2.0)

binding to the Fc region of trastuzumab compared to Fc-III (in words) [1]: moderate binding efficiency
SMILES: CC(=O)N[C@@H](CC(=O)O)C(=O)N[C@H]1CSSC[C@@H](C(=O)N[C@H](C(N)=O)[C@@H](C)O)NC(=O)[C@H](Cc2c[nH]c3ccccc23)NC(=O)[C@H](CCCCN)NC(=O)[C@H](CC(C)C)NC(=O)[C@H](CCC(=O)O)NC(=O)CNC(=O)[C@H](CC(C)C)NC(=O)[C@H](Cc2c[nH]cn2)NC(=O)[C@H](Cc2c[nH]c3ccccc23)NC(=O)[C@H](C)NC1=O [Compound V10K] (HELM PEPTIDE1{[ac].D.C.A.W.H.L.G.E.L.K.W.C.T.[am]}$PEPTIDE1,PEPTIDE1,3:R3-13:R3$$$V2.0)

binding to the Fc region of trastuzumab compared to Fc-III (in words) [1]: moderate binding efficiency
SMILES: CC(=O)N[C@@H](CC(=O)O)C(=O)N[C@H]1CSSC[C@@H](C(=O)N[C@H](C(N)=O)[C@@H](C)O)NC(=O)[C@H](Cc2c[nH]c3ccccc23)NC(=O)[C@H](C(C)C)NC(=O)[C@H](CC(C)C)NC(=O)[C@H](CCC(=O)O)NC(=O)CNC(=O)[C@H](CC(C)C)NC(=O)[C@H](Cc2c[nH]cn2)NC(=O)[C@H](Cc2c[nH]c3ccccc23)NC(=O)[C@H](CCCCN)NC1=O [Compound A3K] (HELM PEPTIDE1{[ac].D.C.K.W.H.L.G.E.L.V.W.C.T.[am]}$PEPTIDE1,PEPTIDE1,3:R3-13:R3$$$V2.0)

binding to the Fc region of trastuzumab compared to Fc-III (in words) [1]: moderate binding efficiency
SMILES: CC(=O)N[C@@H](CC(=O)O)C(=O)N[C@H]1CSSC[C@@H](C(=O)N[C@H](C(N)=O)[C@@H](C)O)NC(=O)[C@H](Cc2c[nH]c3ccccc23)NC(=O)[C@H](C(C)C)NC(=O)[C@H](CC(C)C)NC(=O)[C@H](CCC(=O)O)NC(=O)CNC(=O)[C@H](CC(C)C)NC(=O)[C@H](CCCCN)NC(=O)[C@H](Cc2c[nH]c3ccccc23)NC(=O)[C@H](C)NC1=O [Compound H5K] (HELM PEPTIDE1{[ac].D.C.A.W.K.L.G.E.L.V.W.C.T.[am]}$PEPTIDE1,PEPTIDE1,3:R3-13:R3$$$V2.0)

DoC F(ab)2 [2]: 0.20 | Selectivity Fc/F(ab)2 [2]: 3.2 | DoC ([2]; procedure of Example 11): 0.84 | Labeled mAb (%) ([2]; procedure of Example 11): 59% | DoC Fc ([2]; some values extrapolated as DoC − DoC F(ab)2): 0.64 | DoC [3]: 0.83 | DoC F(ab)2 [3]: 0.54 | DoC Fc [3]: 0.29 | Labeled mAb (%) [3]: 59% | Selectivity Fc/F(ab)2 [3]: 0.5
SMILES: O=C(OCCOCCNC(=S)Nc1ccc2c(c1)C(=O)OC21c2ccc(O)cc2Oc2cc(O)ccc21)Oc1ccc(C(=O)O)cc1 [Carbonate-FITC, 4-[2-[2-[(3′,6′-dihydroxy-3-oxo-spiro [isobenzofuran-1,9′-xanthene]-5-yl)carbamothioylamino]ethoxy]ethoxycarbonyloxy]benzoic acid]

binding to the Fc region of trastuzumab compared to Fc-III (in words) [1]: significant impact on peptide binding
SMILES: CC(=O)N[C@@H](CC(=O)O)C(=O)N[C@H]1CSSC[C@@H](C(=O)N[C@H](C(N)=O)[C@@H](C)O)NC(=O)[C@H](CCCCN)NC(=O)[C@H](C(C)C)NC(=O)[C@H](CC(C)C)NC(=O)[C@H](CCC(=O)O)NC(=O)CNC(=O)[C@H](CC(C)C)NC(=O)[C@H](Cc2c[nH]cn2)NC(=O)[C@H](Cc2c[nH]c3ccccc23)NC(=O)[C@H](C)NC1=O [Compound W11K] (HELM PEPTIDE1{[ac].D.C.A.W.H.L.G.E.L.V.K.C.T.[am]}$PEPTIDE1,PEPTIDE1,3:R3-13:R3$$$V2.0)
